Tests used:
Assay type in all cases: in vivo, C57BL/6J mice
[1] = system: bleomycin-induced pulmonary fibrosis model; assay: General behavioral observation in bleomycin-induced pulmonary fibrosis mice; conditions: oral 21 days, pirfenidone 225 mg/kg, GLP-4 low-dose 200 mg/kg
Protocol: (§1) Fifty male SPF C57BL/6J mice were randomized by weight into the normal control group, model control group, positive control group, GLP-4 low-dose group, and GLP-4 high-dose group, with 10 animals in each group. Ten animals not subjected to modeling served as the normal control group. The remaining animals were modeled by administering bleomycin via tracheal injection at 5 mg/kg, 0.1 mL per mouse, one-time administration. Starting on day 7 post-modeling, the study drug, positive drug, or solvent was administered orally at 10 mL/kg once daily for 21 consecutive days. During the experimental period, daily observations were made for each group's food intake, activity, breathing, and responsiveness; pulmonary function was tested before administration and about 24 h after the last dose. After completing pulmonary function tests, the mice were euthanized for pathological sampling.
General behavioral observation: During the trial period, daily observations were made on the animals' consumption, activity, breathing, and responsiveness.

[2] = system: bleomycin-induced pulmonary fibrosis model; assay: Lung function test (EMKA WBP) in bleomycin-induced pulmonary fibrosis mice
Protocol: as §1
Lung function: Lung function in mice was measured using the EMKA WBP animal lung function assessment system both before administration and approximately 24 h after the last dose. Measurements included inspiratory (expiratory) duration, maximum inspiratory (expiratory) volume, tidal volume, expiratory volume, relaxation time, minute ventilation, respiratory rate, end inspiratory (expiratory) pause, bronchoconstriction parameters, 50% expiratory flow, alveolar ventilation, and number of breaths.

[3] = system: bleomycin-induced pulmonary fibrosis model; assay: Pulmonary histopathology (H&E, pathology scores) in bleomycin-induced pulmonary fibrosis mice
Protocol: as §1
Pulmonary histopathology: Following lung function tests, mice were euthanized, and a laparotomy was performed. Whole-body perfusion was conducted using saline through the portal vein followed by thoracotomy and perfusion-fixation with 10% formaldehyde solution for 5 min. The trachea was then ligated, the lungs were harvested, and further fixed in formalin solution for 48 h. Hematoxylin and eosin (H&E) staining was performed to observe pathological changes.

[4] = 21 days post-dosing, pirfenidone 225 mg/kg po daily
[5] = prior to administration (one week post-modeling), pirfenidone 225 mg/kg group

SMILES: Cc1ccc(=O)n(-c2ccccc2)c1 [positive control, pirfenidone]
- General behavior compared to the model control group [1]: noticeable improvements in appetite, activity, breathing, responsiveness, and fur condition
- AV (alveolar ventilation) [2, 4]: 119.87 ± 38.33 mL
- EEP (end expiratory pause) [2, 4]: 5.89 ± 0.57 ms
- EF50 (50% expiratory flow) [2, 4]: 5.31 ± 0.91 mL/s
- EIP (end inspiratory pause) [2, 4]: 18.83 ± 9.94 ms
- EV (expiratory volume) [2, 4]: 0.14 ± 0.01 mL
- MV (minute ventilation) [2, 4]: 64.98 ± 11.84 mL
- PEF (peak expiratory flow) [2, 4]: 5.59 ± 0.86 mL/s
- PIF (peak inspiratory flow) [2, 4]: 4.49 ± 0.75 mL/s
- Penh (bronchoconstriction parameters) [2, 4]: 0.56 ± 0.22
- RT (relaxation time) [2, 4]: 57.72 ± 22.68 ms
- TV (tidal volume) [2, 4]: 0.14 ± 0.01 mL
- Te (expiratory duration) [2, 4]: 73.20 ± 22.54 ms
- Ti (inspiratory duration) [2, 4]: 79.85 ± 12.82 ms
- n (number of breaths) [2, 4]: 40.22 ± 17.53
- Lung function indices compared to the model control group ([2]; bleomycin mice, 21 days post-dosing, pirfenidone 225 mg/kg, GLP-4 low-dose 200 mg/kg): significant increases in PIF, PEF, TV, EV, MV, EF50, and alveolar ventilation (AV)
- AV (alveolar ventilation) [2, 5]: 70.49 ± 10.76 mL
- EEP (end expiratory pause) [2, 5]: 5.70 ± 0.71 ms
- EF50 (50% expiratory flow) [2, 5]: 5.68 ± 0.95 mL/s
- EIP (end inspiratory pause) [2, 5]: 62.63 ± 33.56 ms
- EV (expiratory volume) [2, 5]: 0.15 ± 0.02 mL
- MV (minute ventilation) [2, 5]: 52.78 ± 12.68 mL
- PEF (peak expiratory flow) [2, 5]: 5.94 ± 0.94 mL/s
- PIF (peak inspiratory flow) [2, 5]: 4.63 ± 0.69 mL/s
- Penh (bronchoconstriction parameters) [2, 5]: 0.44 ± 0.15
- RT (relaxation time) [2, 5]: 105.6 ± 46.61 ms
- TV (tidal volume) [2, 5]: 0.15 ± 0.02 mL
- Te (expiratory duration) [2, 5]: 120.91 ± 48.12 ms
- Ti (inspiratory duration) [2, 5]: 109.26 ± 23.25 ms
- n (number of breaths) [2, 5]: 23.82 ± 4.54
- Fibrotic tissue proliferation ([3]; bleomycin mice, H&E, pirfenidone 225 mg/kg, GLP-4 low-dose 200 mg/kg): no fibrotic tissue proliferation
- Pathology score ([3]; lung, pirfenidone 225 mg/kg po daily, 21 days): 6.22 ± 3.31
